Source: patent US9416132B2, “Substituted imidazo[1,2-b]pyridazines as protein kinase inhibitors” (Tolero Pharmaceuticals, Inc., priority 2011, dated 2016)
Like-named read-outs stand apart in the source and are kept apart here.

Legend:
hERG = hERG (Homo sapiens (Human), UniProt Q12809); assay: hERG Fast Patch assay (WuXiApptec); format: cell-based
PIM-1 [1] = biological target: T1, PIM-1 (Homo sapiens (Human), UniProt P11309); assay: Pim-1 kinase inhibition assay (Promega Kinase-Glo); format: biochemical; settings: read-out: Compound IC50 on Pim1
Description: One illustrative manner in which Pim-1 kinase activity can be determined is by quantifying the amount of ATP remaining in solution after an in vitro Pim-1 kinase reaction. The Kinase-Glo Assay Kit (Promega, Inc., Madison, Wis.) allows this. The amount of ATP remaining in the solution after the kinase reaction serves as a substrate for the luciferase to catalyze luciferin to oxyluciferin plus one photon of light. Thus, the luminescent signal read by the Luminoskan Ascent Instrument (Thermo Electron Corp., Milford, Mass.) correlates with the amount of ATP present after the kinase reaction and inversely correlates with the amount of kinase activity. […] These assays are set up in duplicate 50 ul volumes in white, flat bottom 96 well plates. […] This solution is incubated at 30 degrees Celsius at 360 rpm for two hours. Following the incubation, 50 ul of Kinase-Glo reagent is added to each well, including all positive and negative control wells, and incubated at room temperature for 15 minutes. […] The IC50 values can then be calculated for each inhibitor tested.

PIM-1 [2] = biological target: T1, PIM-1; assay: PIM-1/BAD over-expression phospho-BAD (Ser112) AlphaScreen assay in HEK-293 cells; format: cell-based; settings: PIM-1/BAD over-expression in HEK-293 cells; read-out: average EC50, PIM-1 specific cellular activity (BAD Ser112 phosphorylation)
Method: HEK-293 cells (1×10^4) were seeded in a 96-well plate using EMEM media with serum and incubated overnight at 37° C. in 5% CO2. […] Cells were serum starved for an additional 18 hours, then treated 2 hours with various concentrations of SGI-9481 or 0.5% carrier DMSO control. Media was removed and cells were lysed using 25 μl 1× lysis buffer from the AlphaScreen SureFire Phospho-BAD (Ser112) kit from Perkin Elmer. Lysates (4 μl) were transferred to a 384-well proxiplate, and 5 μl of acceptor mix was added to each well and incubated for 2 hours at room temperature. Donor mix (2 μl) was added to each well, and samples incubated for 2 hours at room temperature and reactions measured on an Envision plate reader (Perkin Elmer) with AlphaScreen capabilities. Non-specific phosphorylation of BAD was subtracted using values from PIM-1 KD transfected cells, and the remaining wells were normalized to the DMSO control wells. EC50 values were calculated using GraphPad Prism software (La Jolla, Calif.).

22RV1/PIM-1 xenografts = assay: 22RV1/PIM-1 over-expression mouse tumor xenograft; format: in vivo
Description: (§1) Male and female Nu/Nu mice were purchased from Harlan Sprague Dawley (Indianapolis, Ind.). Female Nu/Nu mice were used for all xenograft evaluations with the exception of the PC-3 xenografts where male Nu/Nu mice were used. Cell lines were expanded in vitro in complete media, and if adherent were harvested by trypsin-EDTA, centrifuged and resuspended in PBS 1:1 with Matrigel (BD Bioscienes). Cells were inoculated subcutaneously in the right hind flank of mice. When tumors reached 100-200 mm^3 by caliper measurement, mice were randomized and dosing of SGI-9481 or vehicle control began and continued every day for 5 days (QD×5) with 2 days off for 18-21 days. Tumor volumes and body weights were determined twice a week, and tumor weights were measured at the completion of the translational xenograft studies.
(§2) The prostate cancer cell line 22RV1 engineered to over-express PIM-1 as previously described (Mumenthaler, et al, Mol. Cancer Ther., 2009, 8(10)2882-93) was evaluated in vivo. A second model engineered to over-express PIM-2 was established using the NIH-3T3 mouse fibroblast cell line.

NIH-3T3/PIM-2 xenografts = assay: NIH-3T3/PIM-2 over-expression mouse tumor xenograft; format: in vivo
Description: as §1, §2

UM-UC-3 xenograft tumors = assay: UM-UC-3 established mouse xenograft tumors; format: in vivo
Description: as §1, with “When tumors reached 100-200 mm^3 by caliper measurement, mice were randomized and dosing of SGI-9481 or vehicle control began and continued every day for 5 days (QD×5) with 2 days off for 18-21 days.” left out

PC-3 xenograft tumors = assay: PC-3 established mouse xenograft tumors; format: in vivo
Description: as §1, with “When tumors reached 100-200 mm^3 by caliper measurement, mice were randomized and dosing of SGI-9481 or vehicle control began and continued every day for 5 days (QD×5) with 2 days off for 18-21 days.” left out

[3] = Pharmacokinetic study in PC-3 tumor-burdened mice; format: in vivo, mouse; settings: 200 mg/kg
[4] = test system: phosphatidyl inositol-3-kinase (PI3K) family; assay: Selectivity study; format: biochemical
[5] = test system: ML-2 cells (wild-type FLT3) xenografts; assay: ML-2 mouse xenograft study; format: in vivo; settings: ML-2 (wild-type FLT3) xenografts
Description: as §1

[6] = test system: MV-4-11 (FLT3-ITD) xenografts; assay: MV-4-11 mouse xenograft study; format: in vivo
Description: as §1

[7] = 125 mg/kg, less than with 200 mg/kg

Sequence of hERG (Q12809 whole entry): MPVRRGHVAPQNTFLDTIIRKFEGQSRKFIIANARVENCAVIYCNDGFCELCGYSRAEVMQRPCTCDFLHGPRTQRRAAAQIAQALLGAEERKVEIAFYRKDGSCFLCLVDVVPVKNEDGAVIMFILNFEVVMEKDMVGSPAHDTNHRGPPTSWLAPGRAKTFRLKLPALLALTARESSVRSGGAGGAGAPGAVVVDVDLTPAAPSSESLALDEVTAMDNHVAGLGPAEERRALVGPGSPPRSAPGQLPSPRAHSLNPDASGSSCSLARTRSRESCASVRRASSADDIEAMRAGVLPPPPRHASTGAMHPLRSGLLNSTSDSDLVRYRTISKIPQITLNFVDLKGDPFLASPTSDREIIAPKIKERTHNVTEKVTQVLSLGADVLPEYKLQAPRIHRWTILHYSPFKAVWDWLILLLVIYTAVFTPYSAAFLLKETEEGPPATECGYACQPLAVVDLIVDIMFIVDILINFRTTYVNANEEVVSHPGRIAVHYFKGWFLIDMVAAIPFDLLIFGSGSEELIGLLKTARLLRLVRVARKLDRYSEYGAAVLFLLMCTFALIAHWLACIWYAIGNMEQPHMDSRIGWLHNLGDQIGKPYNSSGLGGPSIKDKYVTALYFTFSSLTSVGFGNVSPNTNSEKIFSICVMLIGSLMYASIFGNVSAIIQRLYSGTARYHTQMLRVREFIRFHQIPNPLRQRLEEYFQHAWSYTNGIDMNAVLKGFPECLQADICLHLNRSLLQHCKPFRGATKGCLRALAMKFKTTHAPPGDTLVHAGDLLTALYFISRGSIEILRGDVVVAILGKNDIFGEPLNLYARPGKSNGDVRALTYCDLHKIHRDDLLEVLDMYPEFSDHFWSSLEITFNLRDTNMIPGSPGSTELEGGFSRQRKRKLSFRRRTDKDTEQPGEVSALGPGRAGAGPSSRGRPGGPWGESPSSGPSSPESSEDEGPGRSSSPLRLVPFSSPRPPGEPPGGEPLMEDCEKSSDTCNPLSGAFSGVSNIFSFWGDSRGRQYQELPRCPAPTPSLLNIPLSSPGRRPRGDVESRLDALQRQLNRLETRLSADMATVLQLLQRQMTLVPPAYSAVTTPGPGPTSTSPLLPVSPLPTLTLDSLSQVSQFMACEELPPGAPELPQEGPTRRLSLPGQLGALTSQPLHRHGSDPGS
T1 sequence (P11309 whole entry): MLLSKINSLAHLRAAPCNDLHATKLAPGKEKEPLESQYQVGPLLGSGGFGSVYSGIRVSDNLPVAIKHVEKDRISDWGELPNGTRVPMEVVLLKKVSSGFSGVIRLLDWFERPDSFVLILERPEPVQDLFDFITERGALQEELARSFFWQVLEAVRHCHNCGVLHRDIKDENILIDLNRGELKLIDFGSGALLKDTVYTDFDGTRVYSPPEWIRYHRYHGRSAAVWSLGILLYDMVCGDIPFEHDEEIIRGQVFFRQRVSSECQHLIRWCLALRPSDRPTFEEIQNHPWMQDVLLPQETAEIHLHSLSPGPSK

SMILES: CC(C)(O)[C@H]1CC[C@H](Nc2ccn3ncc(-c4cccc(Cl)c4)c3n2)CC1 [Compound 8-63]
- IC50 (hERG): > 30000 nM

SMILES: N[C@H]1CC[C@H](Nc2ccc3ncc(-c4cccc(OC(F)(F)F)c4)n3n2)CC1 [Compound 8-8, (3-(3-(Trifluoromethoxy)phenyl)imidazo[1,2-b]pyridazin-6-yl)cyclohexane-trans-1,4-diamine]
- IC50 (PIM-1 [1]; Table IV): 4 nM

SMILES: CC(C)(O)[C@H]1CC[C@H](Nc2ccn3ncc(-c4cccc(C(F)(F)F)c4)c3n2)CC1 [Compound 8-56]
- IC50 (hERG): > 30000 nM

SMILES: C[C@]1(O)CC[C@H](Nc2ccc3nnc(-c4cccc(C(F)(F)F)c4)n3c2)CC1 [Compound 8-108, 1-Methyl-4-((3-(3-(trifluoromethyl)phenyl)-[1,2,4]triazolo[4,3-a]pyridin-6-yl)amino)-trans-cyclohexanol]
- IC50 (PIM-1 [1]; Table V): 70 nM

SMILES: CC(C)(N)[C@H]1CC[C@H](Nc2ccc3ncc(-c4cccc(Cl)c4)n3n2)CC1 [Compound 8-79, N-(trans-4-(2-aminopropan-2-yl)cyclohexyl)-3-(3-chlorophenyl)imidazo[1,2-b]pyridazin-6-amine]
- IC50 (PIM-1 [1]; Table IV): 2 nM

SMILES: CC(C)(O)[C@H]1CC[C@H](Nc2ccc3ncc(-c4cccc(Cl)c4)n3n2)CC1 [Compound 8-37]
- IC50 (PIM-1 [1]; Table IV): 4 nM
- IC50 (hERG): > 30000 nM

SMILES: C[C@]1(O)CC[C@H](Nc2ccc3ncc(-c4cccc(C(F)(F)F)c4)n3n2)CC1 [Compound 8-30, 1-Methyl-4-((3-(3-(trifluoromethyl)phenyl)imidazo[1,2-b]pyridazin-6-yl)amino)-trans-cyclohexanol]
- IC50 (PIM-1 [1]; Table IV): 103 nM
- IC50 (hERG): 12000 nM

SMILES: CO[C@H]1CC[C@H](Nc2ccc3ncc(-c4cccc(C(F)(F)F)c4)n3n2)CC1 [Compound 8-32, 4-(trans-Methoxycyclohexyl)-3-(3-(trifluoromethyl)phenyl)imidazo[1,2-b]pyridazin-6-amine]
- IC50 (PIM-1 [1]; Table IV): 115 nM

SMILES: C[C@]1(O)CC[C@H](Nc2ccc3ncc(-c4cccc(Cl)c4)n3n2)CC1 [Compound 8-36, 4-((3-(3-Chlorophenyl)imidazo[1,2-b]pyridazin-6-yl)amino)-1-methyl-trans-cyclohexano]
- IC50 (PIM-1 [1]; Table IV): 145 nM

SMILES: CC(C)(O)[C@H]1CC[C@H](Nc2ccc3ncc(-c4cccc(C(F)(F)F)c4)n3n2)CC1 [Compound 8-31]
- IC50 (PIM-1 [1]; Table IV): 1 nM
- EC50 (PIM-1 [2]): 67 nM
- subcutaneous tumor growth (22RV1/PIM-1 xenografts; 22RV1/PIM-1 + compound vs 22RV1/PIM-1 + vehicle): significantly reduced
- body weight changes (22RV1/PIM-1 xenografts; 22RV1/PIM-1 xenograft mice): No significant changes in body weight
- subcutaneous tumor growth (NIH-3T3/PIM-2 xenografts; NIH-3T3/PIM-2 + compound vs NIH-3T3/PIM-2 + vehicle): significantly inhibited
- body weight changes (NIH-3T3/PIM-2 xenografts; NIH-3T3/PIM-2 xenograft mice): No significant changes in body weight
- tumor growth inhibition (UM-UC-3 xenograft tumors; [7]): significant tumor growth inhibition
- body weight or gross adverse toxicity (UM-UC-3 xenograft tumors; oral dosing 200 mg/kg): no significant changes in body weight or gross adverse toxicity
- tumor growth by volume (caliper) and final tumor weight (UM-UC-3 xenograft tumors; oral dosing 200 mg/kg): significantly reduced
- tumor growth inhibition (PC-3 xenograft tumors; [7]): significant tumor growth inhibition
- body weight or gross adverse toxicity (PC-3 xenograft tumors; oral dosing 200 mg/kg): no significant changes in body weight or gross adverse toxicity
- tumor growth by volume (caliper) and final tumor weight (PC-3 xenograft tumors; oral dosing 200 mg/kg): significantly reduced
- plasma and tumor tissue levels [3]: above the in vitro proliferation EC50
- activity against multiple members of the PI3K family [4]: inhibitory activity
- tumor growth inhibition [5]: significant tumor growth inhibition
- effect on established xenografts [6]: induced regressions

SMILES: CO[C@H]1CC[C@H](Nc2ccc3nnc(-c4cccc(OC(F)(F)F)c4)n3c2)CC1 [Compound 8-99, 4-(trans-Methoxycyclohexyl)-3-(3-(trifluoromethoxy)phenyl)-[1,2,4]triazolo[4,3-a]pyridin-6-amine]
- IC50 (PIM-1 [1]; Table V): 83 nM

SMILES: CO[C@H]1CC[C@H](Nc2ccc3nnc(-c4cccc(Cl)c4)n3c2)CC1 [Compound 8-113, 4-(trans-Methoxycyclohexyl)-3-(3-chlorophenyl)-[1,2,4]triazolo[4,3-a]pyridin-6-amine]
- IC50 (PIM-1 [1]; Table V): 722 nM
